Data set [1] can be described thus: Critical micelle concentration (surfactant properties, Example 6). Format: physicochemical. From the text:
The physical, chemical and antimicrobial properties for the best products synthesized have been tested. These analyses show the different surfactant profiles, and the minimum inhibitory concentrations (MIC) for each compound on Gram-positive bacteria. The best surfactant and antimicrobial results are compared in Table 3.

Data set [2] deals with L. monocytogenes (CIP 103575). Description: MIC, 96-well microplate microdilution (Example 4). Format: cell-based. Conditions: 18 h at 37° C.; for Minimum inhibitory concentration (MIC) L. monocytogenes: Mueller-Hinton medium; for MIC: Listeria monocytogenes, CIP103575, Mueller-Hinton medium, read-out: Minimum inhibitory concentration (MIC) L. monocytogenes. The procedure:
(§1) The bacteriostatic properties of the derivatives are evaluated by measuring their minimum inhibitory concentration (MIC) on the bacteria tested. Such a measurement is made using the 96-well microplate microdilution method according to the conditions defined below.
(§2) The minimum inhibitory concentrations (MIC) are tested on Gram-positive bacterial strains according to the recommendations of the “Clinical Laboratory Standards Institute” (Clinical-Laboratory-Standards-Institute, 6th ed. Approved standard M100-S17. CLSI, Wayne, Pa., 2007).
(§3) The Gram-positive bacteria studied are as follows: L. monocytogenes (CIP 103575), E. faecalis (ATCC® 29212™) and S. aureus (ATCC® 292213™).
(§4) The cultures studied, freshly isolated (after incubation on a blood agar at 37° C. for 18 h), are taken up in sterile water (10 mL) until a 0.5 McFarland (Mc) suspension i.e. 1 to 2×10^8 CFU (bacteria)/cm^3 is obtained. The bacterial suspension was then diluted to obtain a final concentration of 5×10^5 CFU/cm^3.
(§5) Each well contains an identical quantity of Mueller-Hinton medium (a rich medium for bacterial culture) and bacteria with final 5×10^5 CFU/cm^3.
(§6) The test compounds of interest are solubilized in 2.5% m of ethanol before being diluted to different concentrations two by two.
(§7) On the multiwell plate, a first series has been planned comprising the culture medium without the test compound of interest. It corresponds to the growth control (control well). These controls serve as reference for comparing bacterial growth with that of the subsequent wells comprising different concentrations of the test compound of interest. The second series of wells comprises the mother solution for the test compound of interest for a concentration in the wells of 4 mM. Each series of wells was diluted two by two until the last series for a final concentration of 0.003 mM. Each concentration is duplicated in the same plate. The plate is incubated for 18 h at 37° C. […] If there is antibacterial activity, the bacterial growth is inhibited, which means that no turbidity or bacterial residue is present.
(§8) Tests have been conducted on Gram-positive bacteria with sorbitan derivatives. […] After sterilization the solutions are diluted in water. The results obtained for antimicrobial tests on the 3 bacterial strains L. monocytogenes (CIP 103575), E. faecalis (ATCC® 29212™) and S. aureus (ATCC® 292213™) are summarized in Table 1.
On the technique in general: In broth dilution the organism is exposed to a series of concentrations in liquid medium.

Data set [3] relates to S. aureus (ATCC® 292213™). In words: MIC, 96-well microplate microdilution (Example 4). Conditions: for Minimum inhibitory concentration (MIC) S. aureus / MIC: ATCC 292213, Mueller-Hinton medium, 18 h at 37° C.; for MIC: Staphylococcus aureus, ATCC292213, read-out: Minimum inhibitory concentration (MIC) S. aureus. The format is cell-based. The protocol: as §1, §2, §3, §4, §5, §6, §7, §8

Data set [4] concerns E. faecalis (ATCC® 29212™). In words: MIC, 96-well microplate microdilution (Example 4). Format: cell-based. The settings on record: 18 h at 37° C.; for MIC: Enterococcus faecalis, ATCC29212, Mueller-Hinton medium, read-out: Minimum inhibitory concentration (MIC) E. faecalis. The procedure: as §1, §2, §3, §4, §5, §6, §7, §8
Data set [5] concerns L. monocytogenes (CIP 103575). In words: MBC, bacterial count from clear wells reseeded on agar (Example 5). The format is cell-based. The procedure:
(§9) To determine whether the agents tested are bactericidal, the minimum bactericidal concentration (MBC) is determined. The MBC corresponds to the concentration leaving a number of bacterial survivors of <4 log. For this, a bacterial count is run from clear wells or without bacterial residue (C≤MIC). To do this, a dilution to 1/100 was conducted with the two wells with the same concentration before seeding on a blood agar using the Spiral technique. After 24 h of incubation at 37° C., the visual count allowed determination of the minimum concentration from which there is no bacterial growth.
(§10) To determine the bactericidal effect of compounds presenting bacteriostatic properties, the wells no longer presenting turbidity were reseeded on agar.

Data set [6] deals with E. faecalis (ATCC® 29212™). Described as above. The format is cell-based. The protocol:
as §9, §10

In data set [7] the test system is L. monocytogenes (CIP 103575), E. faecalis (ATCC® 29212™) and S. aureus (ATCC® 292213™). In words: MIC microdilution, statements for all three Gram-positive strains together. Format: cell-based. The protocol:
as §1, §2, §3, §4, §5, §6
On the multiwell plate, a first series has been planned comprising the culture medium without the test compound of interest. […]

Data on 11 compounds can be found in patent US10874103B2, “Antibacterial composition comprising an acetal or a long-chain alkyl hexitane ether” (TEREOS STARCH & SWEETENERS BELGIUM, priority 2014, dated 2020).

Converted amounts (≈) assume the structure as drawn.

Consider “5,6-O-Dodecylidene-1,4-D-sorbitan 1e and 1e′ and 3,5-O-dodecylidene-1,4-D-sorbitan 1e′ and 1e′″ [Example 1e]”, for which, in data set [1], the “CMC (critical micelle concentration)” value stood at 0.034 mM. In data set [2], the “Minimum inhibitory concentration (MIC) L. monocytogenes” value amounted to 0.03 mM. In addition, in data set [3], the “bacteriostatic concentration for S. aureus” value is 0.12 mM and the “Minimum inhibitory concentration (MIC) S. aureus” value came to 0.12 mM. In addition, the “Minimum inhibitory concentration (MIC) E. faecalis” value in data set [4] (Mueller-Hinton medium) amounted to 0.03 mM. Moreover, the “bactericidal concentration for L. monocytogenes” value in data set [5] is on record as 0.03 mM. In data set [5] (Table 2, reseeded on agar), the “minimum bactericidal concentration (MBC) L. monocytogenes” value is 0.03 mM. Besides, the “bactericidal concentration for E. faecalis” value in data set [6] is 0.03 mM. The “minimum bactericidal concentration (MBC) E. faecalis” value in data set [6] (Table 2, reseeded on agar) came to 0.03 mM.
Consider `CCCCC1OCC([C@H]2OCC(O)C2O)O1` (stereo partly drawn) [Example 1a, 5,6-O-Pentylidene-1,4-D-sorbitan 1a and 1a′ and 3,5-O-pentylidene-1,4-D-sorbitan 1a″ and 1a′″], for which the MIC in data set [2], in data set [3] and in data set [4] was above 4 mM throughout.
Turning to `CCCCCC1OCC([C@H]2OCC(O)C2O)O1` (stereo partly drawn) [Example 1b, 5,6-O-Hexylidene-1,4-D-sorbitan 1b and 1b′ and 3,5-O-hexylidene-1,4-D-sorbitan 1b″ and 1b′″], the MIC in data set [2], in data set [3] and in data set [4] was above 4 mM each time.
Consider `CCCCCCCC1OCC([C@H]2OCC(O)C2O)O1` (stereo partly drawn) [Example 1c, 5,6-O-Octylidene-1,4-D-sorbitan 1c and 1c′ and 3,5-O-octylidene-1,4-D-sorbitan 1c″ and 1c′″], for which the MIC in data set [2], in data set [3] and in data set [4] was above 4 mM throughout.
Take `CCCCCCCCCC1OCC([C@H]2OCC(O)C2O)O1` (stereo partly drawn) [Example 1d, 5,6-O-Decylidene-1,4-D-sorbitan 1d and 1d′ and 3,5-O-decylidene-1,4-D-sorbitan 1d′ and 1d′″]: the MIC in data set [2], in data set [3] and in data set [4] was above 4 mM throughout.
Take `CCCCCOCC(O)[C@H]1OCC(O)C1O` (stereo partly drawn) [Example 2a, Pentyl-1,4-D-sorbitan]: the MIC in data set [2], in data set [3] and in data set [4] was above 4 mM each time.
With `CCCCCCOCC(O)[C@H]1OCC(O)C1O` (stereo partly drawn) [Example 2b, Hexyl-1,4-D-sorbitan], the MIC in data set [2], in data set [3] and in data set [4] was above 4 mM each time.
`CCCCCCCCOCC(O)[C@H]1OCC(O)C1O` (stereo partly drawn) [Example 2c, Octyl-1,4-D-sorbitan]: the MIC in data set [2], in data set [3] and in data set [4] was above 4 mM each time.
With `CCCCCCCCCCOCC(O)[C@H]1OCC(O)C1O` (stereo partly drawn) [Example 2d, Decyl-1,4-d-sorbitan], the MIC in data set [2], in data set [3] and in data set [4] was above 4 mM throughout.
`CCCCCCCCCCCC(=O)OCC(O)CO` (stereo not drawn) [Monolaurin (ML), monolaurin, reference compound]: the “Minimum inhibitory concentration (MIC) L. monocytogenes” value in data set [2] amounted to 0.04 mM (≈ 11 µg/mL). Further, in data set [3], the “Minimum inhibitory concentration (MIC) S. aureus” value stood at 0.04 mM (≈ 11 µg/mL).
For the compound `CCCCCCCCCCCC=O` [dodecanal, reference compound], the “MIC / inhibitory concentration on the bacterial strains studied” value in data set [7] is listed as above 4 mM.
